Laboratory results as given in patent publication US20060040876A1, “Modulation of peroxisome proliferator-activated receptors” (priority 2004, published 2006).

Assays:
[1] = tested on: 15-keto prostaglandin-Δ^13-reductase; test: 15-keto prostaglandin-Δ^13-reductase inhibition assay; type: biochemical; settings: different concentrations of inhibitor, incubated 2 hours at 37° C.
Procedure: Enzymatic activity was determined as follows. 10 μg of the recombinant mouse PGR-2 protein was incubated at 37° C. in a reaction buffer containing 0.1M Tris-HCl (pH 7.4), 0.5 mM NADPH, and 0.57 mM 15-keto PGE2. The reaction was conducted at 37° C. in the dark for 10 minutes and terminated by adding 700 μl of a buffer which contained 50 mM potassium hydrogen phthalate, pH 3.0, and 1% Tween 20. 200 μl of a color development reagent, which contained 790 μM indonitrotetrazolium chloride, 60 μM phenazene methosulfate, and 1% Tween 20, was added to oxidize any unreacted NADPH. Absorbance at 490 nm was measured by an ELISA plate reader. A standard curve was generated using reaction buffers containing serially diluted amounts of NADPH. […]
A series of compounds were tested for their inhibitory effects on 15-keto prostaglandin-Δ^13-reductase activity. The inhibition assay was performed following the procedure described above. Different concentrations of 15-keto prostaglandin-Δ^13-reductase inhibitors were added to the reaction mixture and incubated for 2 hours at 37° C.

endogenous PPAR = test: Reporter gene assay of endogenous PPAR activity in differentiating 3T3-L1 cells; type: cell-based, mouse; settings: 3T3-L1 cells induced to differentiate for two days, transfected with reporter gene
Procedure: (§1) The effect of prostaglandin on PPAR-gamma activity in adipocytes was investigated. After treatment with a medium that induces cell differentiation, 3T3-L1 cells were treated from day 2 to 4 during adipogenesis with 14 μM 15-keto PGE2, 13,14-dihydro-15-keto PGE2, 15-keto PGF2α, 13,14-dihydro-15-keto PGF2α, or 4.5 μM of BRL49653, a PPAR-gamma agonist. See Forman et al., Cell (1995) 83:803-812. At day 6, aggregates of lipid droplets were stained with oil-red O for observation. […] After being induced to differentiate for two days, the 3T3-L1 cells were transfected with a reporter gene.

[2] = target: T1, recombinant mouse PGR-2 protein (Mus musculus, UniProt Q8VDQ1); test: Substrate specificity and kinetics of recombinant PGR-2 (NADPH oxidation, absorbance at 490 nm); type: biochemical; settings: for specific activity as substrate of PGR-2: 15-keto PGE2 replaced with the test substrate, 0.5 mM NADPH, 37° C., 10 minutes
T1 construct: GST (N); made in house; host or cells: E. coli
T1 sequence (Q8VDQ1 whole entry): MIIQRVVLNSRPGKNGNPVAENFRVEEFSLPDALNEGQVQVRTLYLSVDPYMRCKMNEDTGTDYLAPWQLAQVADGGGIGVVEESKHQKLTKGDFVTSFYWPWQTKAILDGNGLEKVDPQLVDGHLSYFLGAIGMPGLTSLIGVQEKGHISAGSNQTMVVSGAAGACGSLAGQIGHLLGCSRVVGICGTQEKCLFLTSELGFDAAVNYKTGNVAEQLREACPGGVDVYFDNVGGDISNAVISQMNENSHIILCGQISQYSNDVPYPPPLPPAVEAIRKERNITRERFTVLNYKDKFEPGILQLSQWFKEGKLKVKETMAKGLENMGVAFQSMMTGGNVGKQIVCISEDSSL
Procedure: Mouse PGR-2 was recombinantly expressed in E. coli as a GST fusion protein following standard procedures. The recombinant PGR-2 protein thus obtained was used to determine substrate specificity and enzymatic kinetics.
Enzymatic activity was determined as follows. 10 μg of the recombinant mouse PGR-2 protein was incubated at 37° C. in a reaction buffer containing 0.1M Tris-HCl (pH 7.4), 0.5 mM NADPH, and 0.57 mM 15-keto PGE2. The reaction was conducted at 37° C. in the dark for 10 minutes and terminated by adding 700 μl of a buffer which contained 50 mM potassium hydrogen phthalate, pH 3.0, and 1% Tween 20. 200 μl of a color development reagent, which contained 790 μM indonitrotetrazolium chloride, 60 μM phenazene methosulfate, and 1% Tween 20, was added to oxidize any unreacted NADPH. Absorbance at 490 nm was measured by an ELISA plate reader. A standard curve was generated using reaction buffers containing serially diluted amounts of NADPH.
Substrate specificity of PGR-2 was determined using the just-described procedure, except that 15-keto PGE2 was replaced with each of six prostaglandin substrates, each of three downstream metabolites, or leukotriene B4.
Unlike PGR/LTB4DH, PGR-2 used NADPH as a cofactor much more efficiently than NADH.

PPAR-gamma = target: T2, PPAR-gamma (Homo sapiens, UniProt P37231); test: Luciferase reporter with PPAR-gamma ligand-binding domain fused to GAL4 DNA-binding domain in 3T3-L1 cells; type: cell-based
T2 construct: expressed in transfected cells; host or cells: 3T3-L1 cells
T2 sequence (P37231 238-503 limits assumed): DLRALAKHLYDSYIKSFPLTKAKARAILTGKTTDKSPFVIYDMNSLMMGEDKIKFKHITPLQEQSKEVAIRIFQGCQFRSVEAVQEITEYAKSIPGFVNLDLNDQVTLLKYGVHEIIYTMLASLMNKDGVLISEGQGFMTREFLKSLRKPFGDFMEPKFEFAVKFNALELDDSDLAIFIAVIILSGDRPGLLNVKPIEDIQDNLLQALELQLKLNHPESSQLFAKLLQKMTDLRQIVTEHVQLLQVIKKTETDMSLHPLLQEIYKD
Source text: A luciferase reporter gene was transfected to 3T3-L1 cells together with the ligand-binding domain of PPAR-alpha, PPAR-gamma or PPAR-delta fused to a yeast GAL4 DNA-binding domain.

aP2 = aP2 expression in 3T3-L1 cells; type: cell-based, mouse; settings: even in the absence of MIX
IRS-2 = IRS-2 protein expression in 3T3-L1 cells; type: cell-based, mouse; settings: in the presence of insulin and dexamethasone
Source text: (§2) Also examined was the ability of 15-keto PGE2 to induce protein expression of adipogenesis-specific, PPAR-gamma target genes, i.e., IRS-1 and -2.

IRS-1 = IRS-1 protein expression in 3T3-L1 cells; type: cell-based, mouse
Source text: as §2

3T3-L1 cells [3] = test: Adipogenesis in 3T3-L1 cells, lipid droplets stained with oil-red O; type: cell-based, mouse; settings: 14 μM, day 2 to 4 during adipogenesis; stained at day 6
Procedure: as §1

[4] = tested on: PPAR-gamma1 and PPAR-gamma2; test: PPAR-gamma1 and PPAR-gamma2 protein expression in 3T3-L1 cells; type: cell-based, mouse; settings: 15-keto PGE2 and MIX added with insulin and dexamethasone
3T3-L1 cells [5] = test: Glucose transport assay, uptake of 2-deoxy-D-[3H]glucose in differentiated 3T3-L1 cells; type: cell-based, mouse
Procedure: 3T3-L1 cells were induced to differentiate in the same manner as described above. A glucose transport assay was performed by measuring uptake of 2-deoxy-D-[3H]glucose as described by Fingar et al. See Fingar et al., Endocrinology 134:728-735. 1.67 μM of the inhibitor or 45 nM of a PPAR agonist, i.e., AVANDIA, was added to the cells. 10 μM cytochalasin-B was used to measure background glucose uptake levels.

[6] = tested on: Female diabetic mice (C57BLKS/J-m+/+Lep^db); test: Blood glucose levels in insulin-resistant, hyperglycemic diabetic mice; type: in vivo, mouse; settings: 25 mg/kg intraperitoneally twice a day for two days
Procedure: The in vivo effect of another inhibitor, 2,2′-dihydroxychalcone, on glucose metabolism was also investigated. Female diabetic mice were obtained from the Jackson Laboratory (C57BLKS/J-m+/+Lep^db, 12 to 13 weeks old). These mice were characterized as insulin-resistant and hyperglycemic. 25 mg/kg of 2,2′-dihydroxychalcone (n=8) or placebo (n=4, final concentration against body fluid: 0.5% DMSO/1% ethanol) was injected intraperitoneally to the mice twice a day for two days. The mice were then fasted from the 48th hour through 52nd hour after the first injection. Blood samples were collected from the retro-orbital sinus before the first injection, and every two hours after two days of treatment. Blood glucose levels were measured by an electrode-type blood glucose meter (HORIBA, AntSense II, Japan).

SMILES	inhibition of 15-keto prostaglandin-Δ^13-reductase activity [1]	specific activity as substrate of PGR-2 [2]	other results
O=C(/C=C/c1ccc(O)cc1)c1ccccc1O [4,2′-dihydroxychalcone]	inhibited	–	–
COc1cc(O)c(C(=O)/C=C/c2cc(Br)ccc2O)c(OC)c1 [5-bromo-2,2′-dihydroxy-4′,6′-dimethoxychalcone]	inhibited	–	–
CCCCCC(=O)CC[C@@H]1[C@@H](C/C=C\CCCC(=O)O)[C@@H](O)C[C@H]1O [13,14-dihydro-15-keto PGF2α, reference compound]	–	no specific activity was detected	endogenous PPAR activity (reporter gene) (endogenous PPAR): failed to increase PPAR activity
O=C(/C=C/c1cccc(O)c1)c1ccccc1O [3,2′-dihydroxychalcone]	inhibited	–	–
CCCCC/C=C\C[C@@H](O)/C=C/C=C/C=C\[C@@H](O)CCCC(=O)O [leukotriene B4]	–	no specific activity was detected	–
CCCCCC(=O)/C=C/[C@@H]1[C@@H](C/C=C\CCCC(=O)O)[C@@H](O)C[C@H]1O [15-keto PGF2α]	–	reacted specifically	endogenous PPAR activity (reporter gene) (endogenous PPAR): enhanced endogenous PPAR activity significantly; activation of PPAR-gamma (GAL4-LBD luciferase reporter) (PPAR-gamma): activated
O=c1c(O)c(-c2ccc(O)cc2)oc2cc(O)cc(O)c12 [kaempferol]	inhibited	–	–
O.O.O=c1c(O)c(-c2ccc(O)c(O)c2)oc2cc(O)cc(O)c12 [quercetin dehydrate]	inhibited	–	–
O=c1cc(-c2ccc(O)c(O)c2)oc2cc(O)cc(O)c12 [luteolin]	inhibited	–	–
CCCCC[C@H](O)/C=C/[C@@H]1[C@@H](CC(=O)CCCCC(=O)O)[C@@H](O)C[C@H]1O [6-keto PGF1α]	–	no specific activity was detected	–
O=C(/C=C/c1ccccc1)c1ccc(O)cc1O [2′,4′-dihydroxychalcone]	inhibited	–	–
O=C(/C=C/c1ccccc1O)c1ccc(O)cc1O [2,2′,4′-trihydroxychalcone]	inhibited	–	–
CCCCCC(=O)/C=C/[C@@H]1[C@@H](CCCCCCC(=O)O)[C@@H](O)C[C@H]1O [15-keto PGF1α]	–	reacted specifically	–
CCCCCC(=O)CC[C@H]1[C@H](O)CC(=O)[C@@H]1C/C=C\CCCC(=O)O [13,14-dihydro-15-keto PGE2, reference compound]	–	no specific activity was detected	endogenous PPAR activity (reporter gene) (endogenous PPAR): failed to increase PPAR activity
O=C(/C=C/c1ccccc1O)c1cc(O)ccc1O [2,2′,5′-trihydroxychalcone]	inhibited	–	–
CCCCCC(=O)CCC1C(=O)CC(O)C1C/C=C\CCCC(=O)O (stereo not shown) [13,14-dihydro-15-keto PGD2]	–	no specific activity was detected	–
O=c1cc(-c2ccccc2)oc2cc(O)cc(O)c12 [5,7-dihydroxyflavone]	inhibited	–	–
CC(=O)CC(c1ccccc1)c1c(O)c2ccccc2oc1=O (stereo not shown) [warfarin, reference compound]	inhibited	–	–
CCCCCC(=O)/C=C/[C@H]1[C@H](O)CC(=O)[C@@H]1C/C=C\CCCC(=O)O [15-keto PGE2]	–	–	expression of aP2 (aP2): strongly induced; endogenous PPAR activity (reporter gene) (endogenous PPAR): enhanced endogenous PPAR activity significantly; efficiency of PGR-2 catalyzed conversion into 13,14-dihydro-15-keto prostaglandin ([2]; kinetics studies, recombinant PGR-2): most efficiently; IRS-2 expression (IRS-2): enhanced the expression to a level similar to MIX; amount of IRS-1 protein (IRS-1): did not increase; adipogenesis (lipid droplets, oil-red O) (3T3-L1 cells [3]): effectively enhanced adipogenesis at a level similar to BRL49653; activation of PPAR-gamma (GAL4-LBD luciferase reporter) (PPAR-gamma): activated; PPAR-gamma1 and PPAR-gamma2 expression [4]: significantly enhanced
O=c1oc2ccccc2c(O)c1Cc1c(O)c2ccccc2oc1=O [3,3′-methylene-bis(4-hydroxycoumarin)]	inhibited	–	ability to enhance glucose uptake compared with AVANDIA (3T3-L1 cells [5]; 1.67 μM inhibitor vs 45 nM AVANDIA): comparable to that of AVANDIA; increase of glucose uptake (3T3-L1 cells [5]; 1.67 μM inhibitor, 100 nM insulin, differentiated 3T3-L1 cells): 30 folds
O=C(/C=C/c1ccccc1O)c1ccccc1O [2,2′-dihydroxychalcone]	inhibited	–	blood glucose levels compared to placebo controls [6]: significant reduction
O=c1cc(O)c2ccccc2o1 [4-hydroxycoumarin]	inhibited	–	–
CCCCC[C@H](O)/C=C/[C@@H]1[C@@H](C/C=C\CCCC(=O)O)[C@@H](O)C[C@@H]1O [11b-PGF2α]	–	no specific activity was detected	–
CCCCC[C@H](O)/C=C/[C@@H]1[C@@H](C/C=C\CCCC(=O)O)[C@H](O)C[C@H]1O [PGF2β]	–	no specific activity was detected	–
O=c1c(O)c(-c2cccc(O)c2)oc2ccccc12 [3,3′-dihydroxyflavone]	inhibited	–	–
CCCCCC(=O)/C=C/[C@H]1[C@H](O)CC(=O)[C@@H]1CCCCCCC(=O)O [15-keto PGE1]	–	reacted specifically	–
